Measured values from patent publication US20250206773A1, “FORMS AND COMPOSITIONS OF SODIUM CHENODEOXYCHOLATE” (Syntis Bio, Inc., priority 2022, published 2025).
Like-named read-outs stand apart in the source and are kept apart here.

What was measured:
[1] = format: physicochemical
Method: HPLC analysis was carried out on an Agilent 1260 Infinity chromatograph, using a Hichrom C18 column 100×4.6 mm, 3.5 m, at 40° C. Method details were as follows: [table] Around 10 mg of NaCDC Form B was weighed into 1.6 mL HPLC vials. 3-5 mm PTFE-covered cylindrical magnetic stirring bars were added to the vials. […] The vials were visually inspected before each addition to check for the dissolution of the starting material, and the solvent addition was stopped when a complete dissolution was observed. The clear solutions were left to rest at RT. […] The experiments were held at each temperature for 1 h, and then they were visually inspected to see if dissolution occurred. At the end of the experimental time, the magnetic stirring bars were removed, and all slurries or solutions were dried at different temperatures depending on the boiling points of each solvent used (i.e., at 30° C., 20-21 mbar or 50° C., 21 mbar, for 21 hours; with the exception of experiments SASO7, SAS33, SAS34, SAS35, SAS36 and SAS45 which were dried at 50° C. for 43 hours). All the resulting solids were analyzed by XRPD. For several selected experiments, HPLC analysis was performed. The solids that gave new XRPD patterns were investigated by TGA/DSC. [table]

[2] = format: physicochemical; remark: listed apart in the source
Method: In-process stability of NaCDC Form B was evaluated under two conditions at reflux, as described in Table 1 below.

[3] = format: physicochemical; details: pH 7.4
Method: Solubility curve measurements of NaCDC Form A and Form B were performed using a Crystal16 automatic crystallizer (Technobis Crystallization Systems), having an array of 16 microreactors equipped with turbidimeters for the determination of clear and cloud points. Samples of four different concentrations for each crystalline form were prepared by weighing accurately different amounts of each sample and adding 1000 μL of phosphate buffer (pH 7.4) to each vial. The suspensions thus obtained were stirred using a magnetic stirrer and heated from 0° C. to 90° C. at 0.5° C./min. The clear point for each sample was determined and plotted to obtain a crystallization curve (FIG. 13).

[4] = Heating of solid at 315° C. / 360° C., then XRPD and HPLC; format: physicochemical
Method: Based on the results obtained from the TG/DSC analysis, a sample of NaCDC Form B was heated at 315° C. and another sample at 360° C. After heating, the samples were cooled to room temperature and analyzed by XRPD (FIG. 16). […] The material obtained after heating a sample at 360° C. was amorphous.

[5] = Polymorph screening: slurry (XRPD, HPLC of recovered solids); format: physicochemical; details: slurry 7 days
Method: Around 15 mg of NaCDC Form B was weighted into HPLC vials, and the appropriate volume of solvent was added at RT. Slurries were aged for 7 days under stirring (500 rpm), at multiple temperatures: 5° C., 25-30° C., 40° C., and 50° C. All solids were air-dried on filter paper and then analyzed by XRPD. Depending on the results obtained by XRPD and material availability, some experiments were analyzed by HTPLC and TG/DSC.

[6] = Polymorph screening: vapor diffusion onto solids; format: physicochemical
Method: Around 20 mg of NaCDC Form B were weighed into 1.6 mL HPLC vials. Each of the aforementioned vials was inserted individually into 40 mL vessels containing initially 0.5 mL of the corresponding solvent. The vessels were isolated from light and atmosphere and allowed to stand for 12 days, in a closed cabinet at 25° C. or in an oven at 50° C. After the experimental time, the majority of the samples remained solids/wet solids (experiments VDS02-12), which were harvested and analyzed by XRPD. […] All solids were analyzed by XRPD, and depending on the results obtained, some experiments were also analyzed by HPLC and TG/DSC.

[7] = n-BuOH/water (6/1), azeotropic reflux for 24 h
[8] = n-BuOH/water (6/1), azeotropic reflux
[9] = SL70, Methyl ethyl ketone (MEK), 50° C.

## C[C@H](CCC(=O)[O-])[C@H]1CC[C@H]2[C@@H]3[C@H](O)C[C@@H]4C[C@H](O)CC[C@]4(C)[C@H]3CC[C@]12C.[Na+] [Form B, sodium chenodeoxycholate]
[1]; SAS01, Water (H2O), solid after evaporation A (30° C., 20-21 mbar, 21 hours)
  HPLC (%) 212 nm: 84.9%
[1]; SAS03, Ethanol (EtOH), solid after evaporation A (30° C., 21 hours)
  HPLC (%) 212 nm: 71.5%
[1]; SAS04, 2-Propanol (2-PrOH), solid after evaporation A (30° C., 21 hours)
  HPLC (%) 212 nm: 96.6%
[1]; SAS05, 2-Methyl-1-propanol (Isobutanol), solid after evaporation A (30° C., 21 hours)
  HPLC (%) 212 nm: 96.5%
[1]; SAS06, 2-Butanol, solid after evaporation A (30° C., 21 hours)
  HPLC (%) 212 nm: 97.5%
[1]; SAS07, 2-Ethoxyethanol, solid after evaporation C (50° C., 43 hours)
  HPLC (%) 212 nm: 38.0%
[1]; SAS08, 2,2,2-Trifluoroethanol (TFE), solid after evaporation A (30° C., 21 hours)
  HPLC (%) 212 nm: 91.3%
[1]; SAS09, 3-Methyl-1-butanol (Isoamyl alcohol), solid after evaporation B (50° C., 21 hours)
  HPLC (%) 212 nm: 48.1%
[1]; SAS20, n-Butyl acetate, solid after evaporation B (50° C., 21 hours)
  HPLC (%) 212 nm: 96.3%
[1]; SAS24, Diisopropyl ether, solid after evaporation A (30° C., 21 hours)
  HPLC (%) 212 nm: 94.4%
[1]; SAS33, Benzonitrile, solid after evaporation C (50° C., 43 hours)
  HPLC (%) 212 nm: 68.0%
[1]; SAS34, N,N-Dimethyl-acetamide, solid after evaporation C (50° C., 43 hours)
  HPLC (%) 212 nm: 1.2%
[1]; SAS35, N-Methyl-pyrrolidone, gel after evaporation C (50° C., 43 hours)
  HPLC (%) 212 nm: 1.5%
[1]; SAS36, Dimethyl sulfoxide (DMSO), solid after evaporation C (50° C., 43 hours)
  HPLC (%) 212 nm: 32.4%
[1]; SAS39, EtOH:MeCN (1:1 v/v), solid after evaporation A (30° C., 21 hours)
  HPLC (%) 212 nm: 80.1%
[1]; SAS40, H2O:THF (1:1 v/v), solid after evaporation A (30° C., 21 hours)
  HPLC (%) 212 nm: 77.5%
[1]; SAS41, H2O:EtOH (1:1 v/v), solid after evaporation A (30° C., 21 hours)
  HPLC (%) 212 nm: 90.7%
[1]; SAS42, H2O:2-PrOH (1:1 v/v), solid after evaporation A (30° C., 21 hours)
  HPLC (%) 212 nm: 92.0%
[1]; SAS43, H2O:MeCN (1:1 v/v), solid after evaporation A (30° C., 21 hours)
  HPLC (%) 212 nm: 91.1%
[1]; SAS44, H2O:Acetone (1:1 v/v), solid after evaporation A (30° C., 21 hours)
  HPLC (%) 212 nm: 93.7%
[1]; SAS45, H2O:DMSO (1:1 v/v), solid after evaporation C (50° C., 43 hours)
  HPLC (%) 212 nm: 30.2%
[1]; SAS46, MeOH:EtOAc (1:1 v/v), solid after evaporation A (30° C., 21 hours)
  HPLC (%) 212 nm: 89.0%
[1]; SAS47, MeOH:Acetone (1:1 v/v), solid after evaporation A (30° C., 21 hours)
  HPLC (%) 212 nm: 91.0%
[1]; SAS48, EtOH:n-Heptane (1:1 v/v), solid after evaporation A (30° C., 21 hours)
  HPLC (%) 212 nm: 90.1%
[1]; experiments with 2-ethoxyethanol, 3-methyl-1-butanol, benzonitrile, DMAc, NMP, DMSO, H2O:DMSO (1:1 v/v)
  HPLC purity of recovered solids (dropped from 99.2%): 1.2-68.0%
[2]; n-BuOH, reflux for 24 h
  HPLC Purity % CDC (t24): 99.9%
  HPLC Purity % Cholic acid (t24): 0.05%
[2]; n-BuOH, reflux
  HPLC Purity % CDC (t0): 99.9%
  HPLC Purity % Cholic acid (t0): 0.05%
[2]; [7]
  HPLC Purity % CDC (t24): 99.92%
  HPLC Purity % Cholic acid (t24): 0.05%
[2]; [8]
  HPLC Purity % CDC (t0): 99.92%
  HPLC Purity % Cholic acid (t0): 0.05%
[3]
  solubility compared to NaCDC Form A (solubility curve): slightly higher solubility
[4]; heated at 315° C.
  XRPD after heating: different diffractogram than the starting material
[4]; heated at 360° C.
  XRPD after heating: amorphous
[4]; sample heated at 315° C., cooled to room temperature
  HPLC purity after heating: 66.9%
[5]; SL01, Ethanol (EtOH), 5° C.
  HPLC purity (%) at 212 nm: 89.70%
[5]; SL05, Methylcyclohexane, 5° C.
  XRPD: SM, P.O.
[5]; SL06, n-Heptane, 5° C.
  XRPD: SM, l.c.
[5]; SL13, tert-Butyl methyl ether, 5° C.
  HPLC purity (%) at 212 nm: 87.21%
[5]; SL15, Tetrahydrofuran (THF), 5° C.
  XRPD: SM, l.c.
[5]; SL19, Acetonitrile (MeCN), 5° C.
  XRPD: SM, l.c.
[5]; SL22, EtOH:MeCN (1:1 v/v), 5° C.
  HPLC purity (%) at 212 nm: 91.93%
[5]; SL23, EtOH:n-Heptane (1:1 v/v), 5° C.
  HPLC purity (%) at 212 nm: 93.64%
[5]; SL26, Ethanol (EtOH), 25-30° C.
  HPLC purity (%) at 212 nm: 92.34%
[5]; SL27, 2-Propanol (2-PrOH), 25-30° C.
  HPLC purity (%) at 212 nm: 88.33%
[5]; SL28, 2-Methyl-1-propanol (Isobutanol), 25-30° C.
  XRPD: l.c., SM
[5]; SL29, 2-Butanol, 25-30° C.
  XRPD: SM, l.c.
[5]; SL31, Methylcyclohexane, 25-30° C., solvent almost evap./consumed on the 7th day
  XRPD: SM, l.c.
[5]; SL39, tert-Butyl methyl ether, 25-30° C.
  HPLC purity (%) at 212 nm: 84.05%
[5]; SL41, Tetrahydrofuran (THF), 25-30° C.
  XRPD: SM, l.c.
[5]; SL48, EtOH:MeCN (1:1 v/v), 25-30° C.
  HPLC purity (%) at 212 nm: 83.87%
[5]; SL49, EtOH:n-Heptane (1:1 v/v), 25-30° C.
  HPLC purity (%) at 212 nm: 93.06%
[5]; SL52, Ethanol (EtOH), 40° C.
  HPLC purity (%) at 212 nm: 87.98%
[5]; SL56, 2-Propanol (2-PrOH), 50° C.
  HPLC purity (%) at 212 nm: 84.92%
[5]; SL60, n-Heptane, 50° C., solvent almost evap./consumed on 7th day
  XRPD: l.c., SM
[5]; SL68, Tetrahydrofuran (THF), 50° C.
  HPLC purity (%) at 212 nm: 78.16%
[5]; [9]
  HPLC purity (%) at 212 nm: 90.88%
  XRPD: SM, h.c.
[5]; SL74, EtOH:MeCN (1:1 v/v), 50° C.
  HPLC purity (%) at 212 nm: 78.36%
[5]; SL75, EtOH:n-Heptane (1:1 v/v), 50° C.
  HPLC purity (%) at 212 nm: 85.10%
[6]; VDS01, Methanol (MeOH) vapor, 25° C., 12 days, fine suspension, evap. at 30° C., 21 mbar, overnight
  HPLC purity (%) at 212 nm: 89.99%
[6]; VDS03, Ethyl acetate (EtOAc) vapor, diffusion at 25° C. after 12 days
  XRPD: SM, P.O.
[6]; VDS05, Ethanol (EtOH) vapor, diffusion at 50° C. after 12 days
  HPLC purity (%) at 212 nm: 92.11%
[6]; VDS06, 2-Propanol (2-PrOH) vapor, diffusion at 50° C. after 12 days
  XRPD: SM, P.O.
[6]; VDS08, Diisopropyl ether vapor, diffusion at 50° C. after 12 days
  XRPD: SM, P.O.
[6]; VDS09, 2,2,2-Trifluoroethanol (TFE) vapor, diffusion at 50° C. after 12 days, slurry air-dried on filter paper
  HPLC purity (%) at 212 nm: 90.89%
[6]; VDS11, Acetonitrile (MeCN) vapor, diffusion at 50° C. after 12 days
  XRPD: SM, P.O.
[6]; VDS12, Methyl ethyl ketone (MEK) vapor, diffusion at 50° C. after 12 days
  HPLC purity (%) at 212 nm: 93.65%
